Measurements: BigSolDB 2.1

Cc1cccc(C(=O)O)c1[N+](=O)[O-]
solubility (mole fraction)
Conditions	in 1,4-dioxane	in NMP	in acetone	in acetonitrile	in ethanol	in ethyl acetate	in isopropanol	in methanol	in n-propanol
283.15 K	–	0.0128	0.0253	0.00464	0.0103	0.00907	0.00877	0.0097	0.00792
285.65 K	0.0281	0.0141	0.0265	0.00501	0.0111	0.00965	0.00946	0.0104	0.00845
288.15 K	0.0303	0.0154	0.0277	0.00543	0.012	0.0102	0.0102	0.0112	0.00895
290.65 K	0.0324	0.0168	0.0291	0.00588	0.013	0.0108	0.011	0.012	0.00955
293.15 K	0.0346	0.0184	0.0305	0.00633	0.014	0.0115	0.0118	0.0129	0.0102
295.65 K	0.0371	0.0201	0.0318	0.00684	0.0152	0.0121	0.0126	0.0138	0.0109
298.15 K	0.0396	0.0218	0.0333	0.00737	0.0165	0.0128	0.0136	0.0149	0.0116
300.65 K	0.0424	0.0234	0.0347	0.00788	0.0179	0.0136	0.0145	0.0159	0.0124
303.15 K	0.0452	0.0254	0.0364	0.00846	0.0193	0.0144	0.0153	0.0171	0.0133
305.65 K	0.0483	0.0273	0.0379	0.00915	0.0207	0.0151	0.0163	0.0183	0.0141
308.15 K	0.0512	0.0296	0.0396	0.00984	0.0223	0.016	0.0175	0.0196	0.0151
310.65 K	0.0543	0.032	0.0414	0.0106	0.0238	0.017	0.0186	0.0209	0.016
313.15 K	0.0577	0.0345	0.0432	0.0113	0.0257	0.018	0.0198	0.0223	0.0169
315.65 K	0.0609	0.0372	0.045	0.0121	0.0276	0.019	0.021	0.0237	0.0178
318.15 K	0.0646	0.0405	0.0466	0.0128	0.0296	0.02	0.0224	0.0252	0.0188
